Laboratory results published in patent US20230321278A1, “AAV VECTOR DELIVERY SYSTEMS” (President and Fellows of Harvard College, priority 2020, published 2023).
Entries after “also recorded” stand apart in the source; their conditions may differ.

Tests used:
human HFSCs = test: Colony formation assay (CFA); assay type: cell-based; conditions: 0.1 μM procaterol
Procedure: Human hair follicles were isolated from normal scalp tissues. To isolate hair follicle stem cells (HFSCs), hair follicles were dissected, and subcutaneous fat and connective tissues were carefully removed with a scalpel. The lower hair bulb and upper epithelial layer were removed as previously described (Oshima et al., 2001; Rochat et al., 1994). For HFSC isolation, hair follicles were incubated in 1.25 U/mL dispase (Gibco) and 0.5 mg/mL collagenase I (Sigma-Aldrich) solution at 37° C. for 30 minutes, following which the mesenchymal sheath was carefully removed with forceps. To obtain a single cell HFSC suspension, tissue was digested with 0.05% trypsin/EDTA solution (Gibco) for 1 h at 37° C., and cells were filtered through a sterile 40[…] cell strainer (BD Biosciences). Single cell suspensions were then centrifuged at 1300 rpm for 10 minutes and plated on mitomycin C (Cayman) treated J2 feeders at a cell density of 5000 cells/well in a 12-well culture plate (Falcon) in E media supplemented with EGF and additives as described in (Mou et al., 2016; Nowak and Fuchs, 2009). After 48 hours, 0.1 μM procaterol (Sigma) was added (freshly prepared). Medium was changed every 2 days. On day 10, plates were fixed with 4% PFA and stained with Rhodamine B (Sigma). […] CFA quantification was done using Fiji.

HFSCs = test: Adrenergic agonist topical application, anagen entry; assay type: in vivo, mice; conditions: 10 mg/kg body weight once a day for 10 days, extended 2nd telogen
Text: Next, the impact of elevated sympathetic tone on HFSC activation was explored. Sympathetic nerve terminals secrete the neurotransmitter norepinephrine, which binds to adrenergic receptors on target cells. To elevate the sympathetic tone, isoproterenol, a pan-adrenergic receptor agonist, was topically applied at the extended 2nd telogen. […] Loss of sympathetic nerve innervations makes HFSCs more dormant, whereas elevated sympathetic tone promotes HFSC activation.
(§1) H&E stained sections were used for analysis. For quantification, anagen II and anagen III were considered as early anagen, anagen IV was mid anagen, and anagen V and anagen VI were full anagen. Hair cycle stages were determined using previously described criteria (Muller-Rover et al., 2001). Ten to twenty hair follicles were individually assessed and staged in each animal, and at least 4 different animals were used per condition. […] The effects of cold exposure and adrenergic agonist treatment (isoproterenol and procaterol) on anagen entry were quantified by monitoring the change of hair regrowth as previously described (Fan et al., 2018; Sheen et al., 2015). The percent of dorsal skin in anagen was quantified using Fiji. […]

sympathetic nerve = test: Sympathetic nerve ablation by intradermal injection of 6-OHDA; assay type: in vivo, mice
Text: The sympathetic nervous system is constantly active at a basal level to maintain body physiology. To explore if basal sympathetic nerve activity affects the other two cell types in this nerve-APM-HFSC tri-lineage unit, the sympathetic nerve in telogen skin was ablated through intradermal injection of 6-hydroxydopamine (6-OHDA, a selective neurotoxin for sympathetic nerves) (Kostrzewa and Jacobowitz, 1974), when HFSCs are quiescent. […] By P30, hair follicles reached full anagen throughout the control back skin, whereas hair follicles in the sympathectomized skin remained mostly in telogen (FIG. 1C). […]
Chemical ablation: 6-Hydroxydopamine hydrobromide (6-OHDA, Sigma 162957) solution was prepared freshly by dissolving 6-OHDA in 0.1% ascorbic acid (in 0.9% sterile NaCl) for intradermal injection. […] Skin was analyzed one week after ablation.
as §1, with “The” for “The effects of cold exposure and adrenergic agonist treatment (isoproterenol and procaterol) on anagen entry were quantified by monitoring the change of hair regrowth as previously described (Fan et al., 2018; Sheen et al., 2015). The”

| Structure (SMILES) | growth of cultured human HFSCs (area covered by colonies) (human HFSCs) | anagen entry (back skin hair regrowth) (HFSCs) | ablation of the sympathetic nerve in skin (sympathetic nerve; intradermal injection, telogen skin) | HFSC activation and anagen entry (sympathetic nerve; sympathectomy by intradermal 6-OHDA) |
| --- | --- | --- | --- | --- |
| CCC(NC(C)C)C(O)c1ccc(O)c2[nH]c(=O)ccc12 (centres unmarked) [procaterol] | promoted their growth | accelerated anagen entry; also recorded: premature anagen entry |  |  |
| NCCc1cc(O)c(O)cc1O [6-OHDA, 6-hydroxydopamine] |  |  | ablated the sympathetic nerve efficiently | substantial delay in HFSC activation and anagen entry |
| CC(C)NCC(O)c1ccc(O)c(O)c1 (centres unmarked) [isoproterenol] |  | entered anagen earlier; also recorded: precocious anagen entry |  |  |
